The values below come from US12643867B2, “Compositions and uses thereof” (University of Virginia Patent Foundation, priority 2017, dated 2026).

Test [1] concerns M3K2/M3K3 (Mitogen-activated protein kinase kinase kinase 2). The test is described as follows: SILAC LC-MS ATP acyl phosphate probe competition, native kinases in HEK293T. The format is binding, Homo sapiens. To be noted: site Lys2; ATP 1 mM; Ketanserin, Ritanserin 100 μM; RF001 1 mM. As to the method:
Proteomes were diluted to 2 mg/ml in kinase buffer. The light and heavy proteomes (0.5 mg, 250 μL total reaction volume) were pre-treated with vehicle or compound, respectively (5 μL, DMSO (light) or 50× stock in DMSO (heavy)), mixed gently, and incubated at 25° C. for 30 min. […] After incubation, matched light and heavy proteomes were transferred and mixed in a 1:1 ratio in a two-dram vial containing 4:1:3 MeOH/CHCl3/H2O (2 mL MeOH, 500 AL CHCl3, 1.5 mL H2O) for extraction of proteins to remove excess probe, quickly vortexed, and centrifuged at 1,400×g for 3 min to pellet protein. Organic and aqueous layers were removed using a Pasteur pipette, and the protein pellet was transferred to a screw-top tube in 600 μL MeOH. A second extraction was performed by adding CHCl3 (150 μL) and H2O (600 μL) to each sample, vortexed, and centrifuged at 1,400×g for 3 min to pellet protein. Organic and aqueous layers were removed by pipetting. MeOH added to pellet (600 μL) and pellets were re-suspended by sonication (3×1 sec pulse, 20% amplitude) for a final extraction. Samples were then centrifuged at 17,000×g for 5 min to pellet protein and MeOH was removed by pipetting. The pellets were re-suspended in 10 M urea/25 mM ammonium bicarbonate ([…]), brought to a final volume of 1 mL with 25 mM ammonium bicarbonate, reduced with 10 mM DTT for 15 min at 65° C. allowed to cool, and then alkylated with 40 mM iodoacetamide for 30 min at 25° C. in the dark. To desalt the samples, each was transferred to a two-dram glass vial, and to the vial 4:1:2 MeOH/CHCl3/H2O (2 mL MeOH, 500 AL CHCl3, 1 mL H2O) was added. The vials were vortexed quickly, spun at 1.400×g for 3 min to pellet protein, and aqueous and organic layers were removed using a Pasteur pipette. The resulting protein pellet was transferred to a screw-top tube in 600 μL MeOH, and then CHCl3 (150 μL) and HO (600 μL) were added to extract protein a second time. […]
(§1) The peptide samples were analyzed by liquid chromatography-mass spectrometry. […]

Test [2] concerns KS6A1/KS6A2/KS6A3 (Ribosomal protein S6 kinase alpha 1). The test is described as above. Format: binding, Homo sapiens (Human). To be noted: site Lys2; ATP 1 mM; Ketanserin, Ritanserin 100 μM; RF001 1 mM. As to the method: (§2) Proteomes were diluted to 2 mg/ml in kinase buffer. The light and heavy proteomes (0.5 mg, 250 μL total reaction volume) were pre-treated with vehicle or compound, respectively (5 μL, DMSO (light) or 50× stock in DMSO (heavy)), mixed gently, and incubated at 25° C. for 30 min. […] After incubation, matched light and heavy proteomes were transferred and mixed in a 1:1 ratio in a two-dram vial containing 4:1:3 MeOH/CHCl3/H2O (2 mL MeOH, 500 AL CHCl3, 1.5 mL H2O) for extraction of proteins to remove excess probe, quickly vortexed, and centrifuged at 1,400×g for 3 min to pellet protein. Organic and aqueous layers were removed using a Pasteur pipette, and the protein pellet was transferred to a screw-top tube in 600 μL MeOH. A second extraction was performed by adding CHCl3 (150 μL) and H2O (600 μL) to each sample, vortexed, and centrifuged at 1,400×g for 3 min to pellet protein. Organic and aqueous layers were removed by pipetting. MeOH added to pellet (600 μL) and pellets were re-suspended by sonication (3×1 sec pulse, 20% amplitude) for a final extraction. Samples were then centrifuged at 17,000×g for 5 min to pellet protein and MeOH was removed by pipetting. The pellets were re-suspended in 10 M urea/25 mM ammonium bicarbonate ([…]), brought to a final volume of 1 mL with 25 mM ammonium bicarbonate, reduced with 10 mM DTT for 15 min at 65° C. allowed to cool, and then alkylated with 40 mM iodoacetamide for 30 min at 25° C. in the dark. To desalt the samples, each was transferred to a two-dram glass vial, and to the vial 4:1:2 MeOH/CHCl3/H2O (2 mL MeOH, 500 AL CHCl3, 1 mL H2O) was added. The vials were vortexed quickly, spun at 1.400×g for 3 min to pellet protein, and aqueous and organic layers were removed using a Pasteur pipette. The resulting protein pellet was transferred to a screw-top tube in 600 μL MeOH, and then CHCl3 (150 μL) and HO (600 μL) were added to extract protein a second time. The samples were vortexed quickly, centrifuged at 1,400×g to pellet protein, and the aqueous and organic layers were removed by pipetting. Resulting protein pellet was suspended in MeOH (600 μL) via sonication (3×1 sec pulse, 20% amplitude), centrifuged at 17,000×g for 5 min to pellet protein, and MeOH removed by pipetting. Protein pellets were then re-suspended in 25 mM ammonium bicarbonate (500 μL) and digested with 7.5 μg Trypsin/Lys-C(Promega, 15 μL, 0.5 μg/μL) for 3 h at 37° C. Avidin-agarose beads (Thermo Scientific Pierce, 100 AL aliquot per sample) were washed three times by adding 10 mL DPBS, centrifuged at 1,400×g for 1 min, and decanting. This wash step was repeated for a total of 3 times. Digested protein samples were mixed with washed avidin beads (100 μL) and brought to a volume of 5.5 mL with DPBS in a 15 mL conical and rotated for 1 h to enrich samples for the covalent desthiobiotin modification. The beads were washed with 25 mM ammonium bicarbonate (3× with 10 mL, centrifuge at 1,400×g for 3 min, decant) and then H2O (3× with 10 mL, centrifuge at 1,400×g for 3 min, decant). Washed beads were then transferred to a low-bind microfuge tube, centrifuged at 1,400×g for 3 min, allowed to rest for 1 min to settle beads, and then excess H2O was removed carefully using a gel-loading pipette tip. To elute peptides, 100 μL of elution buffer (50% acetonitrile, ACN; 0.1% formic acid) was added to each sample and incubated for 3 min. Beads were spun down at 1.400×g for 3 min, allowed to rest for 1 min to settle beads, and then 75 μL of peptide-containing supernatant was removed carefully using a gel-loading pipette tip and transferred to a new low bind centrifuge tube. This step was repeated two more times with 75 μL of elution buffer and all eluent were collected into the same centrifuge tube (˜225 μL total). Peptides were dried on a speed vacuum, resulting peptide samples acidified in 5% (v/v) formic acid, and stored at −80° C. until analysis.
as §1

For test [3], the system named is M4K4/MINK1/TNIK (Mitogen-activated protein kinase kinase kinase kinase 4). The description is as above. Format: binding, Homo sapiens (Human). Particulars: site Lys2; ATP 1 mM; Ketanserin, Ritanserin 100 μM; RF001 1 mM. On the procedure: as §2, §1
Test [4] has as its system MP2K1/MP2K2 (Dual specificity mitogen-activated protein kinase kinase 1). The test is described as above. Particulars: site Lys2; ATP 1 mM; Ketanserin, Ritanserin 100 μM; RF001 1 mM. Format: binding, Homo sapiens (Human). On the procedure: as §2, §1
Test [5] deals with AAPK1/AAPK2 (5′-AMP-activated protein kinase catalytic subunit alpha-1). The description is as above. The format is binding, Homo sapiens (Human). To be noted: site Lys2; ATP 1 mM; Ketanserin, Ritanserin 100 μM; RF001 1 mM. On the procedure: as §2, §1
Test [6] relates to KS6A4/KS6A5 (Ribosomal protein S6 kinase alpha 4). The description is as above. The format is binding, Homo sapiens (Human). To be noted: site ATP Loop; ATP 1 mM; Ketanserin, Ritanserin 100 μM; RF001 1 mM. On the procedure:
as §2, §1

The subject of test [7] is MARK3/MARK4 (MAP/microtubule affinity-regulating kinase 3). Described as above. The format is binding, Homo sapiens (Human). To be noted: site Lys1; ATP 1 mM; Ketanserin, Ritanserin 100 μM; RF001 1 mM. On the procedure:
as §2, §1

The subject of test [8] is STK3/STK4 (Serine/threonine-protein kinase 3). Described as above. The format is binding, Homo sapiens (Human). Particulars: site Lys2; ATP 1 mM; Ketanserin, Ritanserin 100 μM; RF001 1 mM. As to the method:
as §2, §1

A further test concerns the target Zeta (DGK zeta) (Homo sapiens, UniProt Q13574). The test is described as follows: DGK isoform % Activity screen. Format: biochemical.

Chain of Zeta (DGK zeta) (Q13574 whole entry, canonical isoform): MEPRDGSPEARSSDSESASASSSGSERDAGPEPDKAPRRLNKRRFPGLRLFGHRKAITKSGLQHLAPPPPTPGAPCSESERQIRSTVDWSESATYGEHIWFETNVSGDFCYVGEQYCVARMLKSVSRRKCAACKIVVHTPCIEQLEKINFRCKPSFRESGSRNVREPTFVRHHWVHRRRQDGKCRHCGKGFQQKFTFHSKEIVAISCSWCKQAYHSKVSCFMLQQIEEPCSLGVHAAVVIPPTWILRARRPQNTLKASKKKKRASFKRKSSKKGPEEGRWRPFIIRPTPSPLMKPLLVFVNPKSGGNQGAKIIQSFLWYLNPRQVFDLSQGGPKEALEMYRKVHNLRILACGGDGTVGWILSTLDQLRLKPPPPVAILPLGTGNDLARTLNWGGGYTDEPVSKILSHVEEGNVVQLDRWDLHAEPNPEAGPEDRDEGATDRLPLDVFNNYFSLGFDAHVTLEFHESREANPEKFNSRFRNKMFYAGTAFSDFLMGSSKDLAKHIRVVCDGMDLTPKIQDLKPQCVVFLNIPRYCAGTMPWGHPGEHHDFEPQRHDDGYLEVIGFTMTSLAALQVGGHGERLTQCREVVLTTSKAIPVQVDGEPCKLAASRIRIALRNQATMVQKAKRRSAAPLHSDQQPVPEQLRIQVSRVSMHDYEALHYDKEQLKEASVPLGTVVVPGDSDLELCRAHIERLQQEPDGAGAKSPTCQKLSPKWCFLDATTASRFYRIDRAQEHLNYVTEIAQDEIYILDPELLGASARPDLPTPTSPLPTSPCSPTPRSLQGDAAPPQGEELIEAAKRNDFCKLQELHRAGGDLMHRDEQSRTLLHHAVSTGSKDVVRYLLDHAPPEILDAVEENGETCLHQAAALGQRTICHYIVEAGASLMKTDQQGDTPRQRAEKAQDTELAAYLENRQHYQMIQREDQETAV

As for `O=C(c1ccc(F)cc1)C1CCN(CCn2c(=O)[nH]c3ccccc3c2=O)CC1` [Ketanserin], the “SILAC ratio, M3K2/M3K3 probe-modified peptide” value in [1] amounted to 1.1. In addition, the “SILAC ratio, KS6A1/KS6A2/KS6A3 probe-modified peptide” value in test [2] is on record as 1.4. In addition, in test [3], the “SILAC ratio, M4K4/MINK1/TNIK probe-modified peptide” value came to 1.3. Besides, the “SILAC ratio, MP2K1/MP2K2 probe-modified peptide” value in test [4] is recorded as 1.3. The “SILAC ratio, AAPK1/AAPK2 probe-modified peptide” value in [5] is reported as 1.4. In addition, the “SILAC ratio, KS6A4/KS6A5 probe-modified peptide” value in [6] is reported as 1.3. In addition, in test [7], the “SILAC ratio, MARK3/MARK4 probe-modified peptide” value turned out to be 1.4. The “SILAC ratio, STK3/STK4 probe-modified peptide” value in [8] stood at 1.2. The compound further showed an activity at 100 µM on Zeta (DGK zeta) of 90%.
On to `Fc1ccc(C(=C2CCNCC2)c2ccc(F)cc2)cc1` [RF001, 4-(Bis(4-fluorophenyl)methylene) piperidine], for which the “SILAC ratio, M3K2/M3K3 probe-modified peptide” value in test [1] was 1.0. Further, the “SILAC ratio, KS6A1/KS6A2/KS6A3 probe-modified peptide” value in test [2] was 1.2. In addition, in test [3], the “SILAC ratio, M4K4/MINK1/TNIK probe-modified peptide” value is listed as 1.1. Besides, in test [4], the “SILAC ratio, MP2K1/MP2K2 probe-modified peptide” value stood at 0.9. In [5], the “SILAC ratio, AAPK1/AAPK2 probe-modified peptide” value is on record as 1.1. In [6], the “SILAC ratio, KS6A4/KS6A5 probe-modified peptide” value was 1.1. Moreover, the “SILAC ratio, MARK3/MARK4 probe-modified peptide” value in test [7] stood at 1.1. For the same compound, the “SILAC ratio, STK3/STK4 probe-modified peptide” value in test [8] was 0.9. Besides, the activity at 100 µM on Zeta (DGK zeta) came to 80%. For the same compound, the activity at 1000 µM at Zeta (DGK zeta) (read-out: 1 mM % Activity, Zeta) was 0%.
In the case of `Cc1nc2sccn2c(=O)c1CCN1CCC(=C(c2ccc(F)cc2)c2ccc(F)cc2)CC1` [Ritanserin], the “SILAC ratio, M3K2/M3K3 probe-modified peptide” value in test [1] turned out to be 1.2. Also, in test [2], the “SILAC ratio, KS6A1/KS6A2/KS6A3 probe-modified peptide” value came to 2.0. Besides, the “SILAC ratio, M4K4/MINK1/TNIK probe-modified peptide” value in [3] was 1.8. Besides, the “SILAC ratio, MP2K1/MP2K2 probe-modified peptide” value in [4] came out at 1.9. Besides, the “SILAC ratio, AAPK1/AAPK2 probe-modified peptide” value in test [5] is on record as 2.4. In addition, the “SILAC ratio, KS6A4/KS6A5 probe-modified peptide” value in [6] was found to be 2.2. In addition, the “SILAC ratio, MARK3/MARK4 probe-modified peptide” value in [7] is on record as 2.0. The “SILAC ratio, STK3/STK4 probe-modified peptide” value in test [8] is on record as 1.6. Moreover, at Zeta (DGK zeta), the activity at 100 µM was found to be 86%.
